{"source": "patent US20210038669A1", "about": "“Composition(s) for Topically Treating Pain” (priority 2016, published 2021)", "origin": "cited, not measured here", "system": "neuropathic pain conditions (postherpetic neuralgia, trigeminal, postsurgical or post-traumatic neuralgia)", "conditions": "5% patch, 5% cream, 5% gel, 8% spray; all but one study; third tier (very low quality) evidence"}
{"smiles": "CCN(CC)CC(=O)Nc1c(C)cccc1C", "note": "[lidocaine, Lidocaine]", "values": [{"measurement": "pain relief versus placebo", "result": "better than placebo"}]}
